From publication PMC12567041 (Pharmaceutics, 2025)
pIC50: −log10 of the molar value. Several values for one entry are separate records, joined by “and”; a condition that tells them apart may be missing. Identical values can stand only once. Entries after “also recorded” stand apart in the source; their conditions may differ. One block for each compound: values may come before it.

Columns and labels:
[1] = cited from earlier work
in vitro = conditions: MDCK
[2] = cited from earlier work; remark: listed apart in the source
[3] = In vitro stability study in human feces; type: in vitro ADME; conditions: after 20 h
CYP3A4/5 = assay: Time-dependent inhibition of CYP3A4/5; type: in vitro ADME; conditions: up to 50 μM; in-house data
[4] = in vitro, mean (SD); cited from earlier work
[5] = cited from earlier work; remark: listed apart in the source
[6] = cited from earlier work; remark: listed apart in the source
[7] = Relative contributions of clearance pathways (fm/fe/ft); design: species or system human
Text: However, as discussed below, the in vivo contribution of UGTs was later adjusted downward to account for BCRP-mediated biliary excretion.
The contributions of CYP enzymes and renal elimination remained unchanged. […] A summary of the Simcyp output for elimination pathways, with and without BCRP, is provided in Supplementary Table S1.

[8] = Preclinical volume of distribution across animal species; conditions: in vivo
[9] = Fraction unbound in microsomal incubation (fumic); type: in vitro ADME; conditions: for fraction unbound: human, microsomes (microsomal incubation)
CYP2J2 [10] = conditions: Km*fumic; read-out: Km,u (CYP2J2), mean (SD); cited from earlier work
MDCK-LE cell line = assay: Apparent passive permeability in MDCK-LE cells; conditions: from MDCK-LE permeability
CYP2J2 [11] = assay: Enzyme kinetics, recombinant CYP2J2; conditions: back-calculated, aim for fm = 0.0076
[12] = with strong P-gp inhibitor quinidine; cited from earlier work
[13] = Clinical DDI studies, asciminib as victim (observed); type: in vivo, human; conditions: asciminib 200 mg single dose + phenytoin 100 mg TID
[14] = Two-stage dissolution FaSSGF to FaSSIF; type: physicochemical; conditions: doses up to 200 mg
Experimental: […]. […] In vitro two-stage dissolution experiments, during which the drug/formulation is pre-exposed to fasted-state simulated gastric fluid (FaSSGF) for a 30 min period, at the end of which, properly concentrated fasted-state simulated intestinal fluid (FaSSIF) is immediately added to FaSSGF [13], were performed to assess the risk of precipitation in vitro. […] Considering the high passive permeability, this indicates low risk for compromised absorption in vivo, further supporting the assumption of the complete absorption of asciminib in humans in the fasted state.

[15] = HLMs; cited from earlier work
[16] = 40 mg dose; cited from earlier work
CYP3A4 [17] = system: CYP3A4
[18] = Biopharmaceutics classification; type: physicochemical
CYP3A4 [19] = assay: Enzyme kinetics, recombinant CYP3A4; conditions: back-calculated, aim for fm = 0.351
[20] = cited from earlier work; remark: listed apart in the source
[21] = Compartmental concentrations for static DDI risk assessment; design: species or system human
UGT1A4 = molecular target: T1, UGT1A4 (Homo sapiens, UniProt P22310); assay: Inhibition of recombinant UGT1A4 by imatinib; type: in vitro ADME
T1 sequence (P22310 29-534): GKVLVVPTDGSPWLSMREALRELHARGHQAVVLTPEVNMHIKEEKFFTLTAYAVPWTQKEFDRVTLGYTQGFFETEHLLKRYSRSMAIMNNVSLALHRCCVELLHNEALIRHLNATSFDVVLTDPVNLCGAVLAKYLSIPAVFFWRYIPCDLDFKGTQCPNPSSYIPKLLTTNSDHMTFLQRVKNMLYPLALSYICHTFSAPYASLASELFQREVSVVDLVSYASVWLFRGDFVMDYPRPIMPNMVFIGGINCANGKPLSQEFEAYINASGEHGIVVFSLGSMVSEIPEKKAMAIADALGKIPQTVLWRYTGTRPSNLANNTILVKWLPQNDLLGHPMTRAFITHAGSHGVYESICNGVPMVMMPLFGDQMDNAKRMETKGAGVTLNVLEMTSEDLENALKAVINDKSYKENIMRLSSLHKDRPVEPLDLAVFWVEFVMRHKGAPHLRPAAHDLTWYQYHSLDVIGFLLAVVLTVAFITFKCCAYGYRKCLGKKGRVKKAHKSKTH

[22] = Table S1, sum of hepatic and renal UGT contributions
[23] = assuming no active biliary secretion

Compound: CN(CCOc1ccc(CC2SC(=O)NC2=O)cc1)c1ccccn1 (centres unmarked) [rosiglitazone]
fm by CYP2C8 ([1]; probe substrate property): ≈ 0.6
fm by CYP2C9 ([1]; probe substrate property): ≈ 0.3

Compound: COc1ccc2[nH]c([S+]([O-])Cc3ncc(C)c(OC)c3C)nc2c1 (centres unmarked) [Omeprazole, omeprazole]
fm by CYP2C19 ([1]; CYP2C19 normal metabolizers): ≈ 0.9
fm by CYP3A ([1]; probe substrate property): ≈ 0.1

Papp A→B (in vitro; dog): 0.24 ×10⁻⁶ cm/s
Compound: C[C@H]1[C@H](NC(=O)/C(=N\OC(C)(C)C(=O)O)c2csc(N)n2)C(=O)N1S(=O)(=O)O [aztreonam, reference compound]

Compound: O=C(Nc1ccc(OC(F)(F)Cl)cc1)c1cnc(N2CC[C@@H](O[C@@H]3O[C@H](C(=O)O)[C@@H](O)[C@H](O)[C@H]3O)C2)c(-c2ccn[nH]2)c1 [M30.5]
share of the total AUC ([2]; circulating metabolite): 4.93%
share of the administered dose ([2]; urinary metabolite): 5.4–8.4%
stability in human feces [3]: almost completely hydrolyzed back to asciminib

Compound: O=C(Nc1ccc(OC(F)(F)Cl)cc1)c1cnc(N2CC[C@@H](O)C2)c(-c2ccn[nH]2)c1 [asciminib]
time-dependent inhibition (TDI) of CYP3A4/5 (CYP3A4/5): no apparent TDI; also recorded: no in vitro apparent time-dependent inhibition
fup (fraction unbound in plasma) [4]: 0.027 (0.011)
flux in presence of elevated bile acid concentrations (FeSSIF) [5]: reduced asciminib flux
Log P: Octanol–water partition/logD pH 6.8 [6]: 3.9
CYP2C8: aim for fm/fe/ft, Simcyp output (without BCRP) ([7]; Table S1): 0.007
CYP2C8: aim for fm/fe/ft, final fm (including hepatic BCRP) ([7]; Table S1): 0.005
CYP2C8: fm/fe based on hADME ([7]; Table S1): 0.005
CYP2D6: aim for fm/fe/ft, Simcyp output (without BCRP) ([7]; Table S1): 0.003
CYP2D6: aim for fm/fe/ft, final fm (including hepatic BCRP) ([7]; Table S1): 0.002
CYP2D6: fm/fe based on hADME ([7]; Table S1): 0.002
CYP2J2: aim for fm/fe/ft, Simcyp output (without BCRP) ([7]; Table S1): 0.011
CYP2J2: aim for fm/fe/ft, final fm (including hepatic BCRP) ([7]; Table S1): 0.0076
CYP2J2: fm/fe based on hADME ([7]; Table S1): 0.0076
CYP3A4: aim for fm/fe/ft, Simcyp output (without BCRP) ([7]; Table S1): 0.509
CYP3A4: aim for fm/fe/ft, final fm (including hepatic BCRP) ([7]; Table S1): 0.351
CYP3A4: fm/fe based on hADME ([7]; Table S1): 0.351
Hepatic BCRP: aim for fm/fe/ft, final fm (including hepatic BCRP) ([7]; Table S1): 0.311
Hydrolysis: aim for fm/fe/ft, Simcyp output (without BCRP) ([7]; Table S1): 0.010
Hydrolysis: aim for fm/fe/ft, final fm (including hepatic BCRP) ([7]; Table S1): 0.007
Hydrolysis: fm/fe based on hADME ([7]; Table S1): 0.007
Renal excretion: aim for fm/fe/ft, Simcyp output (without BCRP) ([7]; Table S1): 0.035
Renal excretion: aim for fm/fe/ft, final fm (including hepatic BCRP) ([7]; Table S1): 0.044
Renal excretion: fm/fe based on hADME ([7]; Table S1): 0.044
UGT1A3: aim for fm/fe/ft, Simcyp output (without BCRP) ([7]; Table S1): 0.048
UGT1A3: aim for fm/fe/ft, final fm (including hepatic BCRP) ([7]; Table S1): 0.033
UGT1A3: fm/fe based on hADME ([7]; Table S1): 0.0705
UGT1A4: aim for fm/fe/ft, Simcyp output (without BCRP) ([7]; Table S1): 0.048
UGT1A4: aim for fm/fe/ft, final fm (including hepatic BCRP) ([7]; Table S1): 0.033
UGT2B7: aim for fm/fe/ft, Simcyp output (without BCRP) ([7]; Table S1): 0.190
UGT2B7: aim for fm/fe/ft, final fm (including hepatic BCRP) ([7]; Table S1): 0.131
UGT2B17: aim for fm/fe/ft, Simcyp output (without BCRP) ([7]; Table S1): 0.110
UGT2B17: aim for fm/fe/ft, final fm (including hepatic BCRP) ([7]; Table S1): 0.076
UGT2B17: fm/fe based on hADME ([7]; Table S1): 0.163
UGT1A4: fm/fe based on hADME [7, 22]: 0.0705
UGT2B7: fm/fe based on hADME [7, 22]: 0.279
revised total UGT contribution to total clearance ([7]; after subtracting BCRP contribution): approximately 27.3%
CYP-mediated contribution to total clearance [7, 23]: 36.6%
UGT-mediated contribution to total clearance [7, 23]: 58.3%
Vd [8]: 0.5 to 2.2 L/kg
fumic ([9]; 0.810 mg of protein/mL (CYP3A4 incubation)): 0.160
fumic ([9]; 1.40 mg of protein/mL (CYP2J2 incubation)): 0.0925
fumic ([9]; 1.5 mg of protein/mL (UGT incubation)): 0.0811
fumic ([9]; 1.58 mg of protein/mL (CYP2C8 incubation)): 0.0829
fumic ([9]; 1.86 mg of protein/mL (CYP2D6 incubation)): 0.0680
fraction unbound ([9]; 0.025 mg/mL of protein): 0.871
fraction unbound ([9]; 0.05 mg/mL of protein): 0.75
fraction unbound ([9]; 0.5 mg/mL of protein): 0.208
Km (CYP2J2 [10]): 0.694 µM
predicted fraction absorbed (fa) (MDCK-LE cell line): 93% and ~ 93%
Vmax (CYP2J2) (CYP2J2 [11]): 0.355 pmol/min/pmol CYP
decrease of asciminib AUC [12]: 13%
decrease of asciminib Cmax [12]: 11%
reduction of AUCinf, observed [13]: 34%
reduction of Cmax, observed [13]: 22%
duration of sustained supersaturation [14]: at least 1 h
precipitation in vitro [14]: < 20%
share of metabolism by glucuronidation [15]: ~ 65%
share of metabolism by oxidative metabolism [15]: ~ 35%
AUC in cancer patients [16]: 5800 to 6100 ng·h/mL
Emax (CYP3A4), non-calibrated (CYP3A4 [17]): Non-calibrated Emax = 4.4 In-house data fold
Indmax (=Emax + 1) (CYP3A4), in vitro measured (CYP3A4 [17]): 5.4 fold
biopharmaceutics classification system (BCS) class [18]: class II
unchanged asciminib in urine [2]: 4.4 % of the administered radioactive dose
parent asciminib in feces due to back-conversion of M30.5 ([2]; estimated from late-time-point feces profile): 24%
CLr (renal clearance) ([2]; healthy): 1.8 mL/min/1.73 m^2
unchanged asciminib in cumulative feces ([2]; pooled 0–96 h or 0–168 h, average): 56.7 % of the dose
Vmax (CYP3A4) (CYP3A4 [19]): 3.8 pmol/min/pmol of CYP
exposure reduction, high-fat fed [20]: 70%
exposure reduction, low-fat fed [20]: 33%
recovery (in vitro; dog): 88%
Papp (in vitro; human): 373 ×10⁻⁶ cm/s
Cgut (maximal gut concentration) ([21]; 40 mg BID): 356 µM
Cgut,ent (maximal enterocyte concentration) ([21]; 40 mg BID): 10.5 µM
Ch,in,tot (total maximal hepatic inlet plasma concentration) ([21]; 40 mg BID): 4.47 µM
Ch,in,u (unbound maximal hepatic inlet plasma concentration at the steady state) ([21]; 40 mg BID): 0.121 µM
Cgut (maximal gut concentration) ([21]; 80 mg QD): 711 µM
Cgut,ent (maximal enterocyte concentration) ([21]; 80 mg QD): 20.9 µM
Ch,in,tot (total maximal hepatic inlet plasma concentration) ([21]; 80 mg QD): 9.38 µM
Ch,in,u (unbound maximal hepatic inlet plasma concentration at the steady state) ([21]; 80 mg QD): 0.253 µM
Cgut (maximal gut concentration) ([21]; 200 mg BID): 1778 µM
Cgut,ent (maximal enterocyte concentration) ([21]; 200 mg BID): 52.4 µM
Ch,in,tot (total maximal hepatic inlet plasma concentration) ([21]; 200 mg BID): 26.1 µM
Ch,in,u (unbound maximal hepatic inlet plasma concentration at the steady state) ([21]; 200 mg BID): 0.704 µM
estimated gastrointestinal luminal concentration ([21]; lowest clinical dose 20 mg): ~ 178 μM

pIC50 (UGT1A4): 4.82
Compound: Cc1ccc(NC(=O)c2ccc(CN3CCN(C)CC3)cc2)cc1Nc1nccc(-c2cccnc2)n1 [imatinib]

Compound: CCOc1cc(CC(=O)N[C@@H](CC(C)C)c2ccccc2N2CCCCC2)ccc1C(=O)O [Repaglinide, repaglinide]
fm by CYP2C8 ([1]; probe substrate property): ≈ 0.7
fm by CYP3A ([1]; probe substrate property): ≈ 0.3

Compound: Cn1c(=O)c2c(ncn2C)n(C)c1=O [Caffeine, caffeine]
fm by CYP1A2 ([1]; probe substrate property): ≈ 0.9

Compound: Cc1nnc(C(=O)NC(C)(C)c2nc(C(=O)NCc3ccc(F)cc3)c(O)c(=O)n2C)o1 [Raltegravir, raltegravir]
share eliminated by renal clearance ([1]; assumption of the raltegravir model): 9%

Papp A→B (in vitro; dog): 36 ×10⁻⁶ cm/s
Compound: CC(C)NCC(O)COc1cccc2ccccc12 (centres unmarked) [propranolol, reference compound]
